Experimental data reported in PMC3250956, “Functional characterization and analgesic effects of mixed cannabinoid receptor/T-type channel ligands” (Molecular Pain, 2011).

What was measured:
[1] = system: locomotor activity; assay: Open-field test; assay type: in vivo, mice; details: 1 mg/kg i.p., 30 minutes before the experiment; data not shown
From the text: We then delivered NMP-7 via the intrperitoneal route.

[2] = target: Human CB1 (Homo sapiens, UniProt P21554); assay: GTPγ[35S] functional assay, CHO cell membrane extracts; parameters: Emax: dose or concentration left out as unconfirmed
Sequence of Human CB1 (P21554 whole entry): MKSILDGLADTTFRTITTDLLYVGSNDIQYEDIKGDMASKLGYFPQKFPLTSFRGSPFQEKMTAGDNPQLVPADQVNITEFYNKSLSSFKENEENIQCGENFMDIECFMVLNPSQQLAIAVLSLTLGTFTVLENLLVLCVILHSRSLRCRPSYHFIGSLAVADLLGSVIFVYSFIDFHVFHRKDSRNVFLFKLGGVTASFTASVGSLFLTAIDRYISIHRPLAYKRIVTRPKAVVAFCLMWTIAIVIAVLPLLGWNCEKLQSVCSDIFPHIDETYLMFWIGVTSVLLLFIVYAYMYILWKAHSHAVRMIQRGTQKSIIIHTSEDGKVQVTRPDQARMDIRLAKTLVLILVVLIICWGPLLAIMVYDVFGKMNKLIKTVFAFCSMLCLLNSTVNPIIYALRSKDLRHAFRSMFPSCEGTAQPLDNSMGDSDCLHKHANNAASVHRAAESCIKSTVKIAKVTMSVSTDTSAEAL

[3] = target: T1, Human CB2 (Homo sapiens, UniProt P34972); assay: as above; assay type: biochemical; parameters: expressed in transfected cells; host or cells: CHO cells (membrane extracts)
T1 sequence (P34972 whole entry): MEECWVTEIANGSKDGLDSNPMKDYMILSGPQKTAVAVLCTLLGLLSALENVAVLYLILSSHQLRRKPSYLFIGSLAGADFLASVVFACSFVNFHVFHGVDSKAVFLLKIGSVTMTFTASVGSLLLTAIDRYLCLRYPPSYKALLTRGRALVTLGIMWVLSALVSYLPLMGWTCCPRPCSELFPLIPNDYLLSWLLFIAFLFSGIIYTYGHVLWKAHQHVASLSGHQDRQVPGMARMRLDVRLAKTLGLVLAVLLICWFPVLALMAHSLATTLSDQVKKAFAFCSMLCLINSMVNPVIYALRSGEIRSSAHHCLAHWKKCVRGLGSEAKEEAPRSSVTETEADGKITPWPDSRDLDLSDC

[4] = target: T2, Cav3.2 (Homo sapiens, UniProt O95180); assay: Whole-cell patch-clamp on Cav3.2: concentration-response and steady-state inactivation; assay type: cell-based; details: 10 μM
T2 construct: expressed in transfected cells; host or cells: tsA-201 cells, transient calcium phosphate transfection
T2 sequence (O95180 whole entry): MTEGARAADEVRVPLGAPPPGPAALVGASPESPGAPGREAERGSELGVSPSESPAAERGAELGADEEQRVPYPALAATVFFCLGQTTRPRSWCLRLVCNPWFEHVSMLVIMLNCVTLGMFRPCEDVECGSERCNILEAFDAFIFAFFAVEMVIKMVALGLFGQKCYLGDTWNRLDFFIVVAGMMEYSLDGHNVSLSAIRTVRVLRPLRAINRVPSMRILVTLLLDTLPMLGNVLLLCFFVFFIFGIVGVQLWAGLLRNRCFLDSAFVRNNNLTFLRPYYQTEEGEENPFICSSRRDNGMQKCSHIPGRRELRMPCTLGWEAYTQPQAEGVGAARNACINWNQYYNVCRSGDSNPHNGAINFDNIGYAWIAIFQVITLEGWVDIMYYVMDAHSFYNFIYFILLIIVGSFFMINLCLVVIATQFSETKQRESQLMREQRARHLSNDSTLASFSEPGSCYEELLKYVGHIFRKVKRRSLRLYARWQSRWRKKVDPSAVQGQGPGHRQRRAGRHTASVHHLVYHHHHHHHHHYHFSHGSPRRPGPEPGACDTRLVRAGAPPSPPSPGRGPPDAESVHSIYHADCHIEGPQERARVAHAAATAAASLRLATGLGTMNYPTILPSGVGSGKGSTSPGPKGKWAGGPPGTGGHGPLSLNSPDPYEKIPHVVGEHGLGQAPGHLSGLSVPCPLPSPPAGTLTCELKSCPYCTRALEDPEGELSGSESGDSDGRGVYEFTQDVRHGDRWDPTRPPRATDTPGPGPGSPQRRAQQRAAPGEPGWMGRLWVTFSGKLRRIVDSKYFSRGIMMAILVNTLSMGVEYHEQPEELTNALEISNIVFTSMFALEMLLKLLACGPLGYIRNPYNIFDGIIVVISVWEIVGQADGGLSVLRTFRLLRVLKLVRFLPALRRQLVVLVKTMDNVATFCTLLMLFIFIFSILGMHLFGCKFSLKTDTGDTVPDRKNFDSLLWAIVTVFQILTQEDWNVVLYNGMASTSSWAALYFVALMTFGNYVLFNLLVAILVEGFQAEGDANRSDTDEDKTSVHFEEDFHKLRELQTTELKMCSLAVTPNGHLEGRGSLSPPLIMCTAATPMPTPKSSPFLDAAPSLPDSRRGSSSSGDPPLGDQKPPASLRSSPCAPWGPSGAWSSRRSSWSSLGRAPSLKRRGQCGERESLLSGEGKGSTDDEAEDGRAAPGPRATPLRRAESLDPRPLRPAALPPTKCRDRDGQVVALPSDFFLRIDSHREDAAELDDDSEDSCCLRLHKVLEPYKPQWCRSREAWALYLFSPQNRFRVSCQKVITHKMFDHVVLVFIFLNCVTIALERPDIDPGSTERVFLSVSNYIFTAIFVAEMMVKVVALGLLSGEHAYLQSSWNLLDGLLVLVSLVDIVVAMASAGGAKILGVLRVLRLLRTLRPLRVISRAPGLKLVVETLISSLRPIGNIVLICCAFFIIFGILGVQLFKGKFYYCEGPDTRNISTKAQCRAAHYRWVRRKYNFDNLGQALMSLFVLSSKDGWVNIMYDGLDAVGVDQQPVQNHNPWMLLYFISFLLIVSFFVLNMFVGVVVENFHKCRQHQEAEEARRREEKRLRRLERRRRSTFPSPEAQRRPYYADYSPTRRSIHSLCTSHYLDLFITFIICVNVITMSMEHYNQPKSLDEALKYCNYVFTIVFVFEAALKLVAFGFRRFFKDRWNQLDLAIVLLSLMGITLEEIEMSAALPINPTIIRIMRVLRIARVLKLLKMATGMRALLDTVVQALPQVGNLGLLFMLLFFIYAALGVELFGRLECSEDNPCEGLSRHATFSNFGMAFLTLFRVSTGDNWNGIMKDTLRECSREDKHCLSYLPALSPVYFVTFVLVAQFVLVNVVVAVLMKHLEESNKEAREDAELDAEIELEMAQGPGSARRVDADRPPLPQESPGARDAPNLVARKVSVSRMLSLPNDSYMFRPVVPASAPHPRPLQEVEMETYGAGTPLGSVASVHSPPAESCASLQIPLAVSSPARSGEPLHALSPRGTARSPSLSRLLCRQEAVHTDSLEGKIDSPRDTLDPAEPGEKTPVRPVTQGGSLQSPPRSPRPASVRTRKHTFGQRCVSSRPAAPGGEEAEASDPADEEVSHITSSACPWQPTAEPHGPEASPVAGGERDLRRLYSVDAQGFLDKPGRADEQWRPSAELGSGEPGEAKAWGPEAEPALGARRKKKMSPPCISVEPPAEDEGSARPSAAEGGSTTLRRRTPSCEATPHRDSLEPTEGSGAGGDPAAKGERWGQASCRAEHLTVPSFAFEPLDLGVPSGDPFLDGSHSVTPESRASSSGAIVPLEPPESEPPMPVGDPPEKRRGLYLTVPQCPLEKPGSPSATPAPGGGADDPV
Protocol: To further characterize compounds NMP-4, NMP-7 and NMP-144, we investigated the concentration dependence of their action on Cav3.2, the major T-type calcium channel subtype implicated in the afferent pain pathway (Figure 2B, C).
To determine whether these compounds also affected inactivated channels, we recorded steady-state inactivation curves prior and after application of NMP-4, NMP-7 or NMP-144.
Whole-cell currents were recorded from tsa-201 cells 2-4 days after transfection. The external recording solution contained (in mM): BaCl2 (20), MgCl2 (1), HEPES (10), TEA-Cl (40), CsCl (65), d-glucose (10) and pH 7.2 adjusted with TEA-OH. The internal pipette solution was composed of (in mM) Cs-methanesulfonate (108), MgCl2 (4), EGTA (9), HEPES (9) and pH 7.2 adjusted with CsOH. The internal solution was supplemented with 0.6 mM GTP (sodium salt) and 2 mM ATP (tris salt), which were added directly to the internal solution immediately prior to use. Pipettes with a resistance of 2~5 MΩ when filled with internal solution were used for recording. Currents were elicited from a holding potential of -100 mV and were measured by conventional whole-cell patch clamp using an Axopatch 200B amplifier in combination with Clampex 9.2 software (Axon Instruments, Foster City, CA). Data were filtered at 1 kHz (8-pole Bessel) and digitized at 10 kHz with a Digidata 1320 (Axon Instruments, Foster City, CA). Series resistance were compensated by 85% in all experiments. An online P/4 programme was used to subtract the leak currents. Drugs were dissolved in DMSO at the following stock concentrations: 20 mM for NMP-4 and NMP-7, and 10 mM for NMP-139, NMP-140, NMP-141 and NMP-144. Prior to the experiment, drugs were diluted into external recording solution with a final DMSO concentration no higher than 0.3%. DMSO was also included in the control solution. Drug delivery was controlled by a Valvelink8.2 fast perfusion system (Automate Scientific Inc., Berkeley, CA). The perfusion tip was positioned a few hundred microns from the cell and kept as constant as possible throughout the experiments. Electrophysiological data were analyzed using Clampfit 9.2 (Axon Instruments, Foster City, CA) and GraphPad Prism 5 software (GraphPad Software Inc., San Diego, CA). […] Steady-state inactivation curves were fitted using the Boltzmann equation: I = 1/(1 + e ^(V-Vh)/k), where Vh is the half inactivating potential and k is the slope factor.

[5] = system: formalin-induced pain; assay: Formalin test (formalin-induced nociception); assay type: in vivo, mice
Protocol: All experiments were conducted following the protocol approved by the Institutional Animal Care and Use Committee (protocol #M09130) and all efforts were made to minimize animal suffering. Male mice of C57BL/6J strain weighing 25~30 g, 10 weeks old were used. Animals were housed at a maximum number of five per cage (30 × 20 × 15 cm) with food and water ad libitum. They were kept in 12 h light/dark cycles (lights on at 7:00 a.m.) at a temperature of 23 ± 1°C. All manipulations were carried out between 11:00 am and 3:00 pm. […] Control animals received the same vehicle used to dilute the compounds. When drugs were delivered by intraperitoneal (i.p.) route, a constant volume of 10 ml/kg body weight was injected. When drugs were administered by intrathecal (i.t.) or intraplantar (i.pl.) routes, respectively volumes of 5 μl or 20 μl were injected. Appropriate vehicle-treated groups were also assessed simultaneously.
The formalin test is a widely used model that allows us to evaluate two different types of pain: neurogenic pain (phase 1) is caused by direct activation of nociceptive nerve terminals, while inflammatory pain (phase 2) is mediated by a combination of peripheral input and spinal cord sensitization. Animals received 20 μl of a formalin solution (1.25%) made up in PBS injected intraplantarly (i.pl.) in the ventral surface of the right hindpaw. Following i.pl. injection of formalin, the animals were immediately placed individually into observation chambers and the time spent licking or biting the injected paw was be recorded and considered as nociceptive response. We observed animals individually from 0-5 min (neurogenic phase) and 15-30 min (inflammatory phase).
Intrathecal injections were given to fully conscious mice using the method previously described by Hylden and Wilcox. Briefly, the animals were manually restrained, and a 30-gauge needle connected by a polyethylene tube to a 25 μl Hamilton syringe (Hamilton, Birmingham, UK) was inserted through the skin and between the vertebrae into the […] space of the L5-L6 spinal segments. Intrathecal injections were given over a period of 5 seconds.

[6] = target: T3, rat 5-HT2C (Rattus norvegicus, UniProt P08909); assay: Primary radioligand competitive binding assay, [3H]mesulergine; details: ligand 10 μM, HEK293 cells
T3 construct: expressed in transfected cells; host or cells: HEK293 (Flp-In system, pcDNA5.0FRT)
T3 sequence (P08909 33-460): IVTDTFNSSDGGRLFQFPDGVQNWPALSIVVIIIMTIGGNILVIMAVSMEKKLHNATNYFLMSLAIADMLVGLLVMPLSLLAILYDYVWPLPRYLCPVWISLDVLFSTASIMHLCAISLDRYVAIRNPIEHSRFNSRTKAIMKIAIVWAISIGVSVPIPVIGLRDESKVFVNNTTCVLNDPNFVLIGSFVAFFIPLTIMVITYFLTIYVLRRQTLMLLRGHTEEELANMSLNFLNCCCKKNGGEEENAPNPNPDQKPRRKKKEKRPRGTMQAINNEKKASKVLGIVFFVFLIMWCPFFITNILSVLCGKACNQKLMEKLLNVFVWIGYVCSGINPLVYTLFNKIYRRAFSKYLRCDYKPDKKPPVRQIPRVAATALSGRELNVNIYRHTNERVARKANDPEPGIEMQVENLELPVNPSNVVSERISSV
Protocol: (§1) HEK293 cells and CHO cells were used in the radioligand binding assay while tsA-201 cells were used in the electrophysiological study. Human CB2, human 5-HT2A, rat 5-HT2C used in the binding studies were cloned into pcDNA5.0FRT and cell lines were made using the FlpIn system from Invitrogen. tsA-201 cell culture and transient calcium channel transfection were performed as described previously. In brief, tsA-201 cells were transfected using the calcium phosphate method. Cav3.1, 3.2 and 3.3 α1 subunits were transfected individually with yellow fluorescent protein as a transfection marker.
(§2) Radioligand binding data were obtained using National Institute of Mental Health's Psychoactive Drug Screening Program (NIMH/PDSP) using the same protocol described for CB1 and CB2 binding experiments. Transfected HEK293 (human 5-HT2A or rat 5-HT2C) cells were used. The radioligands were [^3H]ketanserin (0.5 nM) and [^3H]mesulergine (0.5 nM) for respectively 5-HT2A and 5-HT2C experiments. Non-specific binding was determined in the presence of 10 μM chlorpromazine for both 5-HT2A and 5-HT2C binding experiments. Cells were harvested and homogenized in 50 mM Tris HCl, 10 mM MgCl2, 0.1 mM EDTA, pH 7.4. Incubation of radioreceptor binding assay mixtures was 1.5 hours at room temperature in the dark.

[7] = system: T-type calcium channels (Cav3.1, Cav3.2, Cav3.3); assay: Whole-cell patch-clamp screen on recombinant T-type calcium channels in tsA-201 cells; assay type: cell-based, human; details: 10 μM; held at -100 mV, pulse to -20 mV; barium current; three Cav3 isoforms
From the text: Studies have shown that several endocannabinoids and phytocannabinoids have direct inhibitory actions on T-type voltage-gated calcium channels. To determine whether the NMP compounds produced a similar effect, we characterized their actions on transiently expressed T-type calcium channels via whole-cell patch-clamp recordings. Cells were held at -100 mV and barium current was evoked by a depolarizing pulse to -20 mV.
as §1, with “Cav3.1, 3.2 and 3.3 α1 subunits were transfected individually with yellow fluorescent protein as a transfection marker.” left out
Whole-cell currents were recorded from tsa-201 cells 2-4 days after transfection. […] Currents were elicited from a holding potential of -100 mV and were measured by conventional whole-cell patch clamp using an Axopatch 200B amplifier in combination with Clampex 9.2 software (Axon Instruments, Foster City, CA). […] Electrophysiological data were analyzed using Clampfit 9.2 (Axon Instruments, Foster City, CA) and GraphPad Prism 5 software (GraphPad Software Inc., San Diego, CA). […]

[8] = target: T1, Human CB2; assay: Radioligand competitive binding, [3H]CP55940, HEK293 cells; parameters: expressed in transfected cells; details: NA: not active at 1 μM; read-out: Mean Ki Human CB2
Protocol: as §1
(§3) CB1 and CB2 radioligand binding data were obtained using National Institute of Mental Health (NIMH) Psychoactive Drug Screening Program (PDSP) resources as described earlier. Compounds were screened in a competitive binding experiment using, respectively, membrane fractions prepared from rat brain homogenate expressing CB1 receptor and HEK293 cells expressing the human CB2 receptor. Experiments were conducted at a range of different concentrations and in duplicate. The competition binding experiment for CB1 and CB2 was performed in 96 well plates containing Standard Binding Buffer (50 mM Tris HCl, 1 mM EDTA, 3 mM MgCl2, 5 mg/ml fatty acid-free BSA, pH 7.4). The radioligand was [^3H]CP55940, and the reference compound was CP55940. A solution of the compound to be tested was prepared as a 1 mg/ml stock in DMSO and then diluted in Standard Binding Buffer by serial dilution. Radioligand was diluted to five times the assay concentration in Standard Binding Buffer. Aliquots (50 μl) of radioligand were dispensed into the wells of a 96-well plate containing 100 μl of Standard Binding Buffer. Then, duplicate 50-μl aliquots of the test and reference compound dilutions were added. Finally, crude membrane fractions of cells were resuspended in 3 ml of chilled Standard Binding Buffer and homogenized by several passages through a 26 gauge needle, then 50 μl were dispensed into each well. The 250-μl reactions were incubated at room temperature for 1.5 hours, and then harvested by rapid filtration onto Whatman GF/B glass fiber filters pre-soaked with 0.3% polyethyleneimine using a 96-well Brandel harverster. Four rapid 500-μl washes were performed. Filters were placed in 6-ml scintillation tubes and allowed to dry overnight. Bound radioactivity was harvested onto 0.3% polyethyleneimine-treated, 96-well filter mats using a 96-well Filtermate harvester. The filter mats were dried, then scintillant was melted onto the filters and the radioactivity retained on the filters counted in a Microbeta scintillation counter. Raw data (dpm) representing total radioligand binding (i.e., specific + non-specific binding) were plotted as a function of the logarithm of the molar concentration of the competitor (i.e., test or reference compound). Non-linear regression of the normalized (i.e., percent radioligand binding compared to that observed in the absence of test or reference compound) raw data was performed in Prism 4.0 (GraphPad Software) using the built-in three parameter logistic model describing ligand competition binding to radioligand-labeled sites: y = bottom + [(top-bottom)/(1 + 10 × -logIC50)] where bottom equals the residual radioligand binding measured in the presence of 10 μM reference compound (i.e., non-specific binding) and top equals the total radioligand binding observed in the absence of competitor. The log IC50 (i.e., the log of the ligand concentration that reduces radioligand binding by 50%) is thus estimated from the data and used to obtain the Ki by applying the Cheng-Prusoff approximation: Ki = IC50/(1 + [ligand]/KD) where [ligand] equals the assay radioligand concentration and KD equals the affinity constant of the radioligand for the target receptor.

[9] = target: T4, human 5-HT2A (Homo sapiens, UniProt P28223); assay: Primary radioligand competitive binding assay, [3H]ketanserin; details: ligand 10 μM, HEK293 cells
T4 construct: expressed in transfected cells; host or cells: HEK293 (Flp-In system, pcDNA5.0FRT)
T4 sequence (P28223 whole entry): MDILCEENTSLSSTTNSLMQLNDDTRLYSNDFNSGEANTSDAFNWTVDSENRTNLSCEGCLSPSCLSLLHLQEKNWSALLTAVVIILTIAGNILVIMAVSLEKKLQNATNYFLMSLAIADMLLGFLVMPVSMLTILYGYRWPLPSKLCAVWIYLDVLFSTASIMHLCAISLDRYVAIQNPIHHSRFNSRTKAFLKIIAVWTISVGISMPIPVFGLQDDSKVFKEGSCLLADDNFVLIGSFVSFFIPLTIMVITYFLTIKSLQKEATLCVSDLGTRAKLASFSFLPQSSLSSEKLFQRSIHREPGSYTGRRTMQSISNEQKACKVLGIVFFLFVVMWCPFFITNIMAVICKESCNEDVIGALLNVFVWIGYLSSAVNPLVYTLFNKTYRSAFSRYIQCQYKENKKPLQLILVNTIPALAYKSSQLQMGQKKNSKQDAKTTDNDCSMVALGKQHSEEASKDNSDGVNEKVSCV
Protocol: as §1, §2

[10] = target: T5, Rat CB1 (Rattus norvegicus, UniProt P20272); assay: Radioligand competitive binding, [3H]CP55940, rat brain homogenate; details: ligand 10 μM; rat brain homogenates
T5 construct: membrane fractions prepared from rat brain homogenate expressing CB1 receptor; from tissue; host or cells: rat brain homogenate
T5 sequence (P20272 whole entry): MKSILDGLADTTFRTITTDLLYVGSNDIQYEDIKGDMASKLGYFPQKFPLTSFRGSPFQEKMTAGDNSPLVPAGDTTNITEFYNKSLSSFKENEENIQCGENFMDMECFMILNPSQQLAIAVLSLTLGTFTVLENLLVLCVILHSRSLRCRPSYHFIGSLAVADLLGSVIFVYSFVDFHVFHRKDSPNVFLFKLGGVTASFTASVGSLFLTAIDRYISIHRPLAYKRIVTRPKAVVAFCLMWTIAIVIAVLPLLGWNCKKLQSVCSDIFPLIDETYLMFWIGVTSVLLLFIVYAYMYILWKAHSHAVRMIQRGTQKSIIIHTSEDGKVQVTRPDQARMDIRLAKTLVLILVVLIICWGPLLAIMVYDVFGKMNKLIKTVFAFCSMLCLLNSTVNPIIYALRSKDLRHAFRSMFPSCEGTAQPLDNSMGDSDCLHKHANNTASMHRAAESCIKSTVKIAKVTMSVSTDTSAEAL
Protocol: as §3

[11] = 1 mg/kg i.p., 30 min before behavioural assessment
[12] = i.t., 10 min prior, NMP-4 1-10 μg/i.t., NMP-144 0.1-1 μg/i.t., NMP-7 3-30 μg/i.t., mice

## CCCCCn1c2ccccc2c2cc(C(=O)N3CCCCC3)ccc21 [NMP-7]
[1]
  locomotor activity in the open-field test: did not alter locomotor activity
[2]
  EC50: 96.9 ± 11.9 nM
[2]; read-out: GTPγ[35S] functional assays Human CB1 Emax
  Emax: 73.6%
[3]
  EC50: 10.5 ± 1.8 nM
[3]; read-out: GTPγ[35S] functional assays Human CB2 Emax
  Emax: 30.8%
[4]
  hyperpolarizing shift in the half inactivation potential of Cav3.2 channels: 13 mV
[4]; n = 4
  half-inactivation potential after treatment with drug: -63.3 ± 3.5 mV
[5]; [11]
  inhibition of the pain responses in phase 1: 92 ± 7%
  inhibition of the pain responses in phase 2: 94 ± 6%
[5]; i.pl., co-injected with formalin, NMP-4 and NMP-144 0.03-3 μg/paw, NMP-7 0.3-3 μg/i.pl.
  effect on first phase of formalin-induced nociception: able to inhibit the first phase
[5]; [12]
  reduction of pain response time, first (neurogenic) phase: significant inhibition
  reduction of pain response time, second (inflammatory) phase: significant inhibition

## CCCCCn1c2ccccc2c2cc(C(=O)NCCc3ccc(Cl)cc3)ccc21 [NMP-139]
[6]
  Rat 5-HT2C (%) primary radioligand competitive binding: -7.8%
[7]
  inhibition of T-type current: < 20%
[8]
  Ki: 3590 ± 424 nM
[9]
  Human 5-HT2A (%) primary radioligand competitive binding: 7.7%
[10]
  Rat CB1 (%) primary radioligand competitive binding: 46.3%
